In patent US20150051246A1 (priority 2013, published 2015):

How the values were obtained:
[1] = format: in vivo, human; details: plasma, single dose
Description: An interim analysis has been performed based on the data of 9 subjects of the Impaired Elderly group and 4 subjects of the Healthy Elderly group. For this purpose, cognitive battery test scores (VLT, SMT, Stroop task and BL-VAS) and concentrations of roflumilast and roflumilast-N-oxide in plasma have been analysed and summarized by dose over each scheduled sampling time using descriptive statistics.

[2] = format: in vivo, human; details: once a day (24 h) repeated dosing
Protocol: In the above-indicated clinical trial roflumilast was administered once in a single oral dose of 100 mcg, 300 mcg or 1000 mcg. Due to the pharmacokinetics of roflumilast and its metabolite roflumilast-N-oxide and the median plasma half-life of these compounds the steady state plasma concentration levels in a once a day (24 h) repeated dosing regimen of roflumilast/roflumilast-N-oxide is about two-fold compared to the plasma concentration levels following a once a day single dosing.

phosphodiesterase 4 = details: in humans after roflumilast; cited from earlier work
male C57BL/6NCrl mice = experiment: Object Location Task (OLT), spatial memory, 24 h retention interval; format: in vivo; details: for d2 index, discrimination index for T2: 3 h after T1, 24 h interval
Description: The objective of this study was to evaluate the cognitive improvement effects of Roflumilast on spatial memory employing Object Location Task (OLT) in male C57BL/6NCrl mice. Roflumilast was compared with data of the already established PDE4 inhibitor Rolipram in the same model.
Twenty-four 7 month-old male C57BL/6NCrl mice (Charles River, L'Arbresle, France) were used (average body weights: 27.6 g). The animals were kept under a 12/12-hour light/dark cycle (lights on from 07.00 pm to 07.00 am) with free access to food and water. All testing was done between 09.00 am and maximally 06.00 pm.
Both rolipram (Sigma-Aldrich St. Louis, USA; MW 275.34) and roflumilast (Biocrea, Radebeul, Germany; MW 403.21) were dissolved in dimethylsulfoxide (DMSO) and kept at 4° C.; this stock solution was used for further dilutions in 0.5% methylcellulose. Each of rolipram and roflumilast is used in form of its free base. All injected solutions consisted of 0.5% methylcellulose with a fixed DMSO percentages (1.2%) (vehicle).
For the Object Location Task (OLT), doses of 0.01 mg/kg, 0.03 mg/kg and 0.1 mg/kg of Rolipram or Roflumilast or vehicle were administered subcutaneously (s.c.). Based on previous findings, PDE4 inhibitor single administration was performed 3 hours after the first trial as this has an optimum effect on object memory performance. The injection volume was 5 μl/g.
The OLT apparatus consisted of a circular arena, 40 cm in diameter. Half of the 40 cm transparent polyvinyl chloride wall was covered from the outside with white paper. Two objects were placed symmetrically about 10 cm away from the wall on the separation line, between the transparent and covered side of the arena. Four different sets of objects were available: (1) a cone made of brass (maximal diameter 6 cm and total height 3.8 cm), (2) a transparent glass bottle (diameter 2.7 cm, height 8.5 cm) filled with sand and water, (3) a massive metal cube (2.5 cm×5 cm×7.5 cm) with two holes (diameter 1.5 cm), and (4) a massive aluminum cube with a tapering top (4.5 cm×4.5 cm×8.5 cm).
A testing session comprised two trials of 4 minutes. Before each trial, mice were placed in an empty Makrolon cage (incubation cage) for the same amount of time as the trial (4 min). During the first trial (T1), two identical objects were placed symmetrically about 10 cm away from the wall on the separation line between the transparent and covered side of the arena. After the first exploration period of 4 min, the mouse was put back in its home cage. Mice then received treatment at 3 hours post T1. Subsequently, after a predetermined delay interval (24 h), the mouse was placed in the apparatus for the second trial of 4 min (T2). Two identical objects as in T1 were used; one object was placed in the previously used position, whereas the other was placed in a novel position. The novel position of the object could either be a fixed distance towards the front or a fixed distance towards the back of the arena for both objects. The times spent exploring each object during T1 and T2 were recorded manually using a personal computer. All objects and locations were used in a balanced manner to exclude possible object and/or location preferences. To avoid olfactory cues, the objects were thoroughly cleaned with 70% ethanol after each trial. The testing order of conditions was determined randomly.
The measurements reflected the time spent by the mice in exploring each object during T1 and T2. The time spent in exploring the two identical samples in T1 were represented by ‘a1’ and ‘a2’, respectively. The time spent in exploring the sample and the new object in T2 were represented by ‘a’ and ‘b’, respectively. From these exploration times the following variables were calculated: e1, e2, and d2 (Table 1). The d2 index is a relative measure of discrimination corrected for exploratory activity. […]

[3] = tested on: xylazine/ketamine induced α2-adrenergic receptor-mediated anesthesia; details: in vivo, 0.3 mg/kg
Description: Since emesis is a typical side-effect of PDE4 inhibitors the emetic potential of roflumilast and rolipram was investigated in parallel using the xylazine/ketamine induced α2-adrenergic receptor-mediated anesthesia test. The results confirmed that the two phosphodiesterase 4 inhibitors have different effects on emesis.

male Wistar rats = experiment: Object recognition task (ORT), scopolamine induced memory deficit; format: in vivo
Protocol: Memory acquisition processes are investigated using the object recognition test (ORT).
Twenty four 3-4 month old male Wistar rats (Charles River, Sulzfeld, Germany) were used for the study. All animals were housed individually in standard green line Tecniplast IVC cages on stardust bedding. The animals were housed on a reversed 12/12 h light/dark cycle (lights on from 07:00 pm to 07:00 am) and had free access to food and water. The rats were housed and tested in the same room. A radio, playing softly, provided background noise in the room. All testing was performed between 09:00 am and 06:00 pm.
Drugs were prepared daily, except as indicated otherwise. Roflumilast (Takeda, Konstanz, Germany, MW 403.21) was dissolved in 98% methylcellulose solution (0.5% methylcellulose) and 2% Tween 80. Roflumilast in doses of 0 (vehicle), 0.0001, 0.0003, 0.001, 0.003, 0.01 and 0.03 mg/kg was administered intraperitonally (ip, injection volume 1 ml/kg). […] All compounds were administered 30 min before T1.
The testing order of conditions was determined randomly. The experimenter was blind of testing protocol. A within design was used and all treatment conditions were balanced over rats. The ORT was performed as described elsewhere (Ennaceur and Delaceur, 1988, Behav Brain Res, Vol 31, pp 47-59; Akkerman et al; 2012, Behav Brain Res, Vol 232, pp 335-347). The apparatus consisted of a circular arena, 83 cm in diameter. The back half of the 40 cm high wall was made of grey PVC and the front was made of transparent PVC. Fluorescent red tubes and a light bulb provided a constant illumination of about 20 lux on the floor of the apparatus. The light intensity was equal in the different parts of the apparatus.
Two objects were placed in symmetrical positions at the mid-line between the gray and transparent halves of the arena, about ten centimeters away from wall. Four different sets of objects were available: 1) a standard 1 L brown transparent glass bottle (diameter 10 cm, height 22 cm) filled with water, 2) a metal cube (10.0×5.0×7.5 cm) with two holes (diameter 1.9 cm), 3) a cone consisting of a gray PVC base (maximal diameter 18 cm) with a collar on top made of brass (total height 16 cm), and 4) an aluminum cube with a tapering top (13.0×8.0×8.0 cm). Objects were presented to the animals in a balanced manner to avoid object or place biases. Rats were unable to displace the objects.
A test session comprised two trials, each with durations of 3 min. During the learning trial (T1) the apparatus contains two identical objects (object a1 and a2). Rats were always introduced into the apparatus with their nose towards the transparent wall segment (i.e. facing outwards to the front of the arena). Subsequently, rats were put back in its home cage for a 1 h interval. After the retention interval, rats were put back into the arena for the […] (T2). In T2, the two objects from T1 were replaced by one identical copy (a3) and a different novel object (b). The times spent in exploring each object during T1 and T2 were recorded manually on a personal computer.
Exploration was defined in the following manner: directing the nose to the object at a distance of no more than 2 cm and/or touching the object with the nose. Sitting on the object was not considered as exploratory behavior. In order to avoid the presence of olfactory cues, the objects were thoroughly cleaned with a 70% ethanol solution before each trial.
Prior to compound testing, the animals were handled for 5 min on 2 consecutive days and allowed to explore the ORT arena, also for 5 min. Subsequently, the animals were accustomed to the complete ORT testing procedure without receiving any injection.
The readout parameters of the object recognition task are the times that rats spent on exploring each object during T1 and T2. The exploration time (in seconds) of each object during T1 are presented as “a1” and “a2”.

rats [4] = details: cited from earlier work
rats [5] = details: cited from earlier work; remark: listed apart in the source

In the case of `O=C(Nc1c(Cl)c[n+]([O-])cc1Cl)c1ccc(OC(F)F)c(OCC2CC2)c1` [roflumilast-N-oxide, 3-cyclopropylmethoxy-4-difluoromethoxy-N-(3,5-dichloro-1-oxypyrid-4-yl)benzamide], the exposure [1] is given as “consistent with those previously reported”, the “steady state plasma concentration levels compared to single dosing” value [2] is given as “about two-fold” and the “share of overall phosphodiesterase 4 inhibition” value (phosphodiesterase 4) is given as “more than 90%”.

In the case of `COc1ccc(C2CNC(=O)C2)cc1OC1CCCC1` (stereo not shown) [rolipram], the “d2 index, discrimination index for T2” value (male C57BL/6NCrl mice; 0.01 mg/kg s.c.) is reported as 0.08, the “d2 index, discrimination index for T2” value (male C57BL/6NCrl mice; 0.03 mg/kg s.c.) is reported as 0.13 and the “d2 index, discrimination index for T2” value (male C57BL/6NCrl mice; 0.1 mg/kg s.c.) is reported as 0.07. The “dose effective in improving spatial memory” value (male C57BL/6NCrl mice; s.c.) was 0.03 mg/kg and the emetic potential [3] was “strong emetic potential”.

Work on `CN1[C@@H]2C[C@@H](OC(=O)[C@H](CO)c3ccccc3)C[C@H]1[C@@H]1O[C@@H]12` [scopolamine] yielded a d2 (male Wistar rats; scopolamine 0.1 mg/kg + veh + veh, rof + dpz study) of −0.04 and a d2 (male Wistar rats; scopolamine 0.1 mg/kg ip + vehicle, dose response study) of 0.01.

For `COc1cc2c(cc1OC)C(=O)C(CC1CCN(Cc3ccccc3)CC1)C2.Cl` (racemic) [donepezil, (±)-2,3-dihydro-5,6-dimethoxy2-[[1-(phenylmethyl)-4-piperidinyl]methyl]-1H-inden-1-one], the d2 (male Wistar rats; scopolamine 0.1 mg/kg + donepezil 0.1 mg/kg p.o.) was 0.04.

In the case of `O=C(NC1CC1)c1cn(-c2cccc(-c3ccc([C@@H]4C[C@H]4C(=O)O)c(F)c3)c2)c2ncccc2c1=O` [MK-0952], the “novel object recognition (in words)” value (rats [4]) is given as “improvement of novel object recognition” and the “Water Maze DMTP test (in words)” value (rats [5]) is given as “improvement”.
